In patent publication US10183006B2, “Methods of therapeutic monitoring of nitrogen scavenging drugs” (Horizon Therapeutics, LLC, priority 2011, dated 2019):

Experiments:
[1] = HPN-100 in subjects with hepatic impairment with cirrhosis and healthy adults: plasma metabolites; format: in vivo, human; details: all plasma samples, all subject groups
Method: (§1) To determine its pharmacokinetic (PK) and pharmacodynamic (PD) profile in patients with liver disease, clinical testing was conducted in which HPN-100 was administered orally as a single dose (100 mg/kg/day on day 1), and twice daily for 7 consecutive days (200 mg/kg/day on days 8 through 14, in two doses of 100 mg/kg per dose), to subjects with hepatic impairment with cirrhosis (Child-Pugh scores of A, B, or C) and to a gender and age-matched control group of healthy adults with normal hepatic function. On day 15, subjects received a single dose of HPN-100 (100 mg/kg). PK blood samples were taken pre-dose, at 15 and 30 minutes post-dose, and at 1, 1.5, 2, 3, 4, 6, 8, 12, and 24 hours post-dose on days 1, 8, and 15, and at 48 hours after dosing on days 1 and 15. On days 9-14, blood samples were taken pre-morning dose and at 2 hours post-morning dose. Urine was collected 0-4, 4-8, 8-12, and 12-24 hours post-dose on days 1, 8, and 15, and at 24-48 hours post-dose on days 1 and 15.

[2] = Illustrative UCD patient cases (Patients A, B, C): blood ammonia under nitrogen scavenging drug
Description: In certain embodiments of the methods disclosed herein, blood samples used for measuring fasting blood ammonia levels and/or ULN blood ammonias are venous blood samples. In certain embodiments, a blood sample is a plasma blood sample. Any methods known in the art may be used to obtain a plasma blood sample. For example, blood from a subject may be drawn into a tube containing heparin or ethylenediaminetetraacetic acid (EDTA). In certain embodiments, the sample can be placed on ice and centrifuged to obtain plasma within 15 minutes of collection, stored at 2-8° C. […] In other embodiments, the blood plasma sample is snap frozen, stored at ≤−18° C. […] In certain embodiments, blood samples are taken in a laboratory or hospital setting. In certain embodiments, a single fasting blood sample is used to measure fasting blood ammonia level. However, in other embodiments, multiple fasting blood samples may be obtained. In certain embodiments, a subject's blood ammonia level may be monitored throughout the day. Further, in certain embodiments, the methods disclosed herein comprise an additional step of obtaining one or more blood samples from a subject prior to or after measuring fasting blood ammonia level.
Measurement of ammonia levels in a fasting blood sample is carried out using techniques known in the art. For example, ammonia levels may be measured using a colorimetric reaction or an enzymatic reaction. In certain embodiments, a colorimetric reaction may involve the use of bromophenol blue as an ammonia indicator. In these embodiments, ammonia may react with bromophenol blue to yield a blue dye. In certain embodiments, an enzymatic reaction may involve glutamate dehydrogenase catalyzing the reductive amination of 2-oxoglutarate with NH^4+ and NADPH to form glutamate and NADP^+. The formation of NADP^+ formed is directly proportional to the amount of ammonia present in the blood sample. Therefore, the concentration of ammonia is measured based on a decrease in absorbance.
Initial dosage is determined based on body surface area or as otherwise instructed according to HPN-100 drug labeling.

[3] = Relationship between PAA levels and neurological AEs in UCD patients (switchover and 12-month protocols); format: in vivo, human; details: short term switchover
[4] = Population PK model (NONMEM) and Monte Carlo dosing simulations in UCD patients; parameters: species or system human
Method: Diagnostic plots and statistical comparisons were used to select among candidate models, and covariates were assessed by graphical analyses and covariate modeling.

[5] = Short term switch over comparison of NaPBA and HPN-100 in controlling ammonia, 24-hr serial sampling, pediatric UCD patients; format: in vivo, human; details: end of treatment with HPN-100; 11 pediatric UCD patients ages 6-17
Description: (§2) The relationship between reducing ammonia burden by maintaining fasting ammonia at or close to half ULN and neuropsychological outcomes in pediatric UCD patients was explored in clinical trials. […] These patients underwent 24-hr serial sample collection in a confined setting where the last sample at 24 hr was considered fasting and under supervision of the study personnel. At the end of treatment with HPN-100 the average fasting ammonia at 24-hr time point was 15.5 μmol/L or less than half ULN, indicating good clinical control. These 11 patients along with another 15 pediatric patients were enrolled in two long term studies and received HPN-100 for 12 months, during which monthly fasting ammonia were collected. At the time of enrollment and at the end of the study, all patients underwent assessment for neuropsychological outcomes including the following: BRIEF (Behavior Rating Inventory of Executive Function) to assess day-to-day executive functioning, CBCL (Child Behavior Checklist) to evaluate internalizing (e.g., mood/anxiety) and externalizing behaviors, and WASI (Wechsler Abbreviated Scale of Intelligence) to estimate of intellectual ability.

[6] = Two long term studies, HPN-100 for 12 months in pediatric UCD patients: monthly fasting ammonia and hyperammonemia episodes; format: in vivo, human
Description: as §2, with “ability. […]” for “ability.”

[7] = Neuropsychological outcomes (BRIEF, CBCL, WASI) after 12 months HPN-100 in pediatric UCD patients; format: in vivo, human
Description: as §2
In pediatric patients, WASI and CBCL scores were stable in comparison to baseline. The majority of the BRIEF subscales at baseline were at or close to 65, consistent with borderline and/or clinically significant dysfunction. Among 22 pediatric subjects who completed the neuropsychological testing at 12 months, all BRIEF domains were improved (lower T scores) with means (SD) at end of study compared to baseline for Behavioral Regulation Index 53.7 (9.79) vs. 60.4 (14.03) (p<0.05); Metacognition Index 57.5 (9.84) vs. 67.5 (13.72) (p<0.001), and Global Executive Scale 56.5 (9.71) vs. 66.2 (14.02) (p<0.001).

[8] = HPN-100 in subjects with hepatic impairment with cirrhosis and healthy adults (Study UP 1204-002): urinary excretion; format: in vivo, human; details: for PAGN Proportion excreted post-24 hours (%), of total PAGN eliminated over 48 hours: after dosing on day 1
Method: as §1

[9] = after dosing on day 1 (0-48 hours), Child-Pugh A
[10] = after dosing on day 1 (0-48 hours), Child-Pugh B
[11] = after dosing on day 1 (0-48 hours), Child-Pugh C
[12] = after dosing on day 1 (0-48 hours), Healthy Volunteers
[13] = Patient A, 3 mL dose with each meal

In the case of `O=C(O)CNC(=O)CCCc1ccccc1` [PBG, phenylbutyryl glycine], the “alternative HPN-100 metabolite level in plasma” value [1] is reported as “below the limit of quantification”.

For `O=C([O-])c1ccccc1.[Na+]` [sodium benzoate, reference compound], the “fasting blood ammonia level” value ([2]; Patient C, adult UCD, 15 g/day for at least 7 days, 77 μmol/L before treatment) was 35 µmol/L and the fasting ammonia level ([2]; Patient C, 18 grams per day for at least 7 days) was 15 µmol/L.

With `O=C(O)CNC(=O)Cc1ccccc1` [PAG, phenylacetyl glycine] the “alternative HPN-100 metabolite level in plasma” value [1] was “below the limit of quantification”.

In the case of “sodium phenylbutyrate [NaPBA, reference compound]”, the “relationship between neurological AEs and PAA levels” value [3] is reported as “No statistically significant relationship”, the “fractional presystemic metabolism of PBA” value ([4]; adults) is reported as 23% and the “fractional presystemic metabolism of PBA” value ([4]; pediatric patients) is reported as 43%. The “fasting blood ammonia level” value ([2]; Patient B, 11-year UCD patient, 24 pills per day, suspected noncompliant) was 40 µmol/L.

In the case of `O=C(CCCc1ccccc1)OCC(COC(=O)CCCc1ccccc1)OC(=O)CCCc1ccccc1` [HPN-100, glyceryl tri-[4-phenylbutyrate]], the “average fasting ammonia at 24-hr time point” value [5] is reported as 15.5 µmol/L, the “episodes of acute hyperammonemia” value ([6]; during 12 month treatment, pediatric UCD patients, 9 in the 12 months before enrollment) is reported as 5 and the “peak ammonia, mean” value ([6]; during the 12 month study, 233 μmol/L before enrollment) is reported as 166 µmol/L. For the same molecule, the “BRIEF Behavioral Regulation Index, T score mean (SD) at end of study” value ([7]; 22 pediatric subjects, baseline 60.4 (14.03), p<0.05) was 53.7 (9.79), the “BRIEF Global Executive Scale, T score mean (SD) at end of study” value ([7]; 22 pediatric subjects, baseline 66.2 (14.02), p<0.001) was 56.5 (9.71) and the “BRIEF Metacognition Index, T score mean (SD) at end of study” value ([7]; 22 pediatric subjects, baseline 67.5 (13.72), p<0.001) was 57.5 (9.84). For the same molecule, the “WASI and CBCL scores in comparison to baseline” value ([7]; pediatric patients) was “stable”, the “relationship between neurological AEs and PAA levels” value [3] was “No statistically significant relationship” and the “fractional presystemic metabolism of PBA” value ([4]; adults) was 43%. For the same molecule, the “slower PBA absorption when delivered as GPB vs. NaPBA” value ([4]; final popPK model) was ~60%, the “fractional presystemic metabolism of PBA” value ([4]; pediatric patients) was 14% and the “urinary PAGN Amount Excreted” value ([8]; after dosing on day 1 (0-24 hours), Child-Pugh A (n = 8)) was 15553 µmol. The “urinary PAGN Amount Excreted” value ([8]; after dosing on day 1 (0-24 hours), Child-Pugh B (n = 8)) was 16847 µmol, the “urinary PAGN Amount Excreted” value ([8]; after dosing on day 1 (0-24 hours), Child-Pugh C (n = 8)) was 19291 µmol and the “urinary PAGN Amount Excreted” value ([8]; after dosing on day 1 (0-24 hours), Healthy Volunteers (n = 8)) was 14903 µmol. For the same molecule, the “PAGN Mole % of dose excreted” value [8, 9] was 47.1 Mole %, the “urinary PAGN Amount Excreted” value [8, 9] was 18386 µmol and the “PAGN Mole % of dose excreted” value [8, 10] was 44.9 Mole %. The “urinary PAGN Amount Excreted” value [8, 10] was 19902 µmol, the “PAGN Mole % of dose excreted” value [8, 11] was 48.5 Mole % and the “urinary PAGN Amount Excreted” value [8, 11] was 20854 µmol. The “PAGN Mole % of dose excreted” value [8, 12] was 42.2 Mole %, the “urinary PAGN Amount Excreted” value [8, 12] was 17869 µmol and the “PAGN Proportion excreted post-24 hours (%), of total PAGN eliminated over 48 hours” value ([8]; Child-Pugh A) was 15.5%. For the same molecule, the “PAGN Proportion excreted post-24 hours (%), of total PAGN eliminated over 48 hours” value ([8]; Child-Pugh B) was 14.5%, the “PAGN Proportion excreted post-24 hours (%), of total PAGN eliminated over 48 hours” value ([8]; Child-Pugh C) was 8.8% and the “PAGN Proportion excreted post-24 hours (%), of total PAGN eliminated over 48 hours” value ([8]; Healthy Volunteers) was 16.9%. The “urinary PAGN Amount Excreted” value ([8]; after dosing on day 8 (0-12 hours), after first 100 mg/kg morning dose, Child-Pugh A) was 16068 µmol, the “urinary PAGN Amount Excreted” value ([8]; after dosing on day 8 (0-12 hours), after first 100 mg/kg morning dose, Child-Pugh B) was 13179 µmol and the “urinary PAGN Amount Excreted” value ([8]; after dosing on day 8 (0-12 hours), after first 100 mg/kg morning dose, Child-Pugh C) was 15428 µmol. For the same molecule, the “urinary PAGN Amount Excreted” value ([8]; after dosing on day 8 (0-12 hours), after first 100 mg/kg morning dose, Healthy Volunteers) was 10195 µmol, the “PAGN Mole % of dose excreted” value ([8]; after dosing on day 8 (0-12 hours), Child-Pugh A) was 40.6 Mole % and the “PAGN Mole % of dose excreted” value ([8]; after dosing on day 8 (0-12 hours), Child-Pugh B) was 29.9 Mole %. The “PAGN Mole % of dose excreted” value ([8]; after dosing on day 8 (0-12 hours), Child-Pugh C) was 44.6 Mole %, the “PAGN Mole % of dose excreted” value ([8]; after dosing on day 8 (0-12 hours), Healthy Volunteers) was 24.5 Mole % and the “PAGN Mole % of dose excreted” value ([8]; after dosing on day 15 (0-48 hours), % of the single morning dose of day 15, Child-Pugh A) was 79.6 Mole %. The “PAGN Mole % of dose excreted” value ([8]; after dosing on day 15 (0-48 hours), % of the single morning dose of day 15, Child-Pugh B) was 58.2 Mole %, the “PAGN Mole % of dose excreted” value ([8]; after dosing on day 15 (0-48 hours), % of the single morning dose of day 15, Child-Pugh C) was 85.0 Mole % and the “PAGN Mole % of dose excreted” value ([8]; after dosing on day 15 (0-48 hours), % of the single morning dose of day 15, Healthy Volunteers) was 68.6 Mole %. For the same molecule, the “urinary PAGN Amount Excreted” value ([8]; after dosing on day 15 (0-48 hours), Child-Pugh A) was 31431 µmol, the “urinary PAGN Amount Excreted” value ([8]; after dosing on day 15 (0-48 hours), Child-Pugh B) was 25152 µmol and the “urinary PAGN Amount Excreted” value ([8]; after dosing on day 15 (0-48 hours), Child-Pugh C) was 30752 µmol. The “urinary PAGN Amount Excreted” value ([8]; after dosing on day 15 (0-48 hours), Healthy Volunteers) was 28716 µmol, the “average conversion of HPN-100 to PAGN” value ([8]; after single dose administration, cirrhosis and healthy volunteers) was 40-50% and the “HPN-100 dose administered excreted as PAGN” value ([8]; day 1) was 42-49%. For the same molecule, the “HPN-100 dose administered excreted as PAGN” value ([8]; day 8) was 25-45%, the “HPN-100 dose administered excreted as PAGN” value ([8]; day 15) was 58-85% and the “effect of hepatic impairment on ammonia-scavenging ability” value ([8]; urinary PAGN excretion, Child-Pugh groups vs healthy volunteers) was “no significant effect”. For the same molecule, the “fasting blood ammonia level” value ([2]; Patient A, adult UCD, 9 mL/day for at least 7 days, 52 μmol/L before treatment) was 33 µmol/L, the average daily ammonia [2, 13] was 66 µmol/L and the “maximum ammonia after dinner” value [2, 13] was 95 µmol/L. For the same molecule, the fasting ammonia level ([2]; Patient A, 12 mL total or 4 mL TID for at least 7 days) was 15 µmol/L and the “fasting blood ammonia level” value ([2]; Patient B, 3.5 mL 3 times a day for at least 7 days) was 17 µmol/L.

In the case of `NC(=O)CC[C@H](NC(=O)CCCc1ccccc1)C(=O)O` [PBGN, phenylbutyryl glutamine], the “alternative HPN-100 metabolite level in plasma” value [1] is reported as “below the limit of quantification”.
